Measured values published in ChEMBL document CHEMBL2321807, “Synthesis and in vitro biological evaluation of lipophilic cation conjugated photosensitizers for targeting mitochondria” (Bioorg Med Chem, 2013).
Active and inactive are the calls of the source. No cut-off for these calls is given here.

Columns and labels:
[1] = test system: Colon 26; test: Drug uptake in mouse Colon 26 cells at 5 to 10 uM after 24 hrs by fluorimetric analysis; type: ADME, cell-based; details: colon 26, 24 h
[2] = test system: Colon 26; test: Phototoxicity against mouse Colon 26 cells up to 5 uM incubated for 24 hrs prior to irradiation measured after 30 mins by MTT assay; type: functional
[3] = test system: Colon 26; test: Drug uptake in mouse Colon 26 cells at 10 uM after 24 hrs by fluorimetric analysis relative to CMP-OH; type: ADME, cell-based; details: colon 26, 24 h
[4] = test system: Colon 26; test: Phototoxicity against mouse Colon 26 cells incubated for 24 hrs prior to irradiation measured after 30 mins by MTT assay; type: functional, cell-based; details: Colon 26, light or radiation study
[5] = Drug uptake in human MCF7 cells mitochondria at 5 uM after 14 hrs by Rh-123-based dual fluorescence staining method; type: ADME, cell-based; details: mcf7, 14 h
[6] = test system: Colon 26; test: Dark toxicity against mouse Colon 26 cells up to 5 uM after 24 hrs by MTT assay; type: functional, cell-based
[7] = test system: Colon 26; test: Drug uptake in mouse Colon 26 cells at 5 uM after 24 hrs by fluorimetric analysis relative to CMP-OH; type: ADME, cell-based; details: colon 26, 24 h
[8] = Drug uptake in human MCF7 cells cytoplasm at 5 uM after 14 hrs by Rh-123-based dual fluorescence staining method; type: ADME, cell-based; details: mcf7, 14 h
[9] = n-octanol-water distribution coefficient, log D of the compound at pH 7.4 by shake flask method; type: physicochemical
[10] = test system: Colon 26; test: Drug uptake in mouse Colon 26 cells assessed per cell at 5 uM after 24 hrs by fluorimetric analysis; type: ADME, cell-based; details: colon 26, 24 h

Compound | Drug uptake [1] | Activity [2] | fold change (FC) [3] | IC50 [4] [nM] | Drug uptake [5] | Activity [6] | fold change (FC) [7] | Drug uptake [8] | logD [9] | Drug uptake [10] [fmol]
CCN(CC)c1ccc2c(-c3ccccc3C(=O)OCCCOc3ccc(-c4c5nc(c(-c6ccccc6)c6ccc(s6)c(-c6ccccc6)c6nc(c(-c7ccccc7)c7ccc4s7)C=C6)C=C5)cc3)c3ccc(=[N+](CC)CC)cc-3oc2c1.[Cl-] | Active | >70% | 7 | 2360 | Active | inactive | 10.6 | Active | 2.01 | 
Oc1ccc(-c2c3nc(c(-c4ccccc4)c4ccc(s4)c(-c4ccccc4)c4nc(c(-c5ccccc5)c5ccc2s5)C=C4)C=C3)cc1 |  | inactive |  |  |  | inactive |  |  | 2.3 | 0.19
C1=Cc2nc1c(-c1ccccc1)c1ccc(s1)c(-c1ccccc1)c1nc(c(-c3ccc(OCCC[P+](c4ccccc4)(c4ccccc4)c4ccccc4)cc3)c3ccc(s3)c2-c2ccc(OCCC[P+](c3ccccc3)(c3ccccc3)c3ccccc3)cc2)C=C1.[Br-].[Br-] | Active | >70% | 7 | 1670 | Active | inactive | 8.3 |  | 1.79 | 
CCN(CC)c1ccc2c(-c3ccccc3C(=O)O)c3ccc(=[N+](CC)CC)cc-3oc2c1 [RHODAMINE B] |  |  |  |  |  |  |  |  | 2.07 | 
CCN(CC)c1ccc2c(-c3ccccc3C(C)=O)c3ccc(=[N+](CC)CC)cc-3oc2c1 |  | inactive |  |  |  | inactive |  |  |  | 
C1=Cc2nc1c(-c1ccccc1)c1ccc(s1)c(-c1ccccc1)c1nc(c(-c3ccc(OCCC[P+](c4ccccc4)(c4ccccc4)c4ccccc4)cc3)c3ccc(s3)c2-c2ccccc2)C=C1.[Br-] | Active | >70% | 14 | 900 | Not Active | inactive | 18.9 |  | 2.04 | 
C1=Cc2nc1c(-c1ccccc1)c1nc(c(-c3ccccc3)c3ccc([nH]3)c(-c3ccccc3)c3ccc([nH]3)c2-c2ccccc2)C=C1 |  |  |  |  |  | inactive |  |  |  | 
